Test results as given in paper PMC5361735, “Characterization and mechanisms of anti-influenza virus metabolites isolated from the Vietnamese medicinal plant Polygonum chinense” (BMC Complementary and Alternative Medicine, 2017).
Values after ≈ are worked out from the molar mass of the structure shown. Where two headings read alike, the source gives them in different places.

What was measured:
[1] = tested on: influenza viruses PR8, HK and Lee; assay: CPE inhibition assay, results stated over all strains; type: cell-based, influenza A and B viruses; settings: for EC50: Influenza A virus, PR8, range over the strains (and compounds named)
[2] = tested on: A/Hong Kong/8/68 (H3N2, HK); settings: for EC50: read-out: EC50 HK; for S.I. (CC50/EC50) HK: Table 2
in vitro = settings: dog
[3] = tested on: A/Hong Kong/8/68 (H3N2, HK); assay: microbe, parasite or virus in culture; settings: Influenza A virus, H3N2, MDCK, 72 h, read-out: EC50 HK
B/Lee/40 (Lee) [4] = settings: for S.I. (CC50/EC50) Lee: Table 2
[5] = tested on: A/Puerto Rico/8/34 (H1N1, PR8); assay: microbe, parasite or virus in culture; settings: Influenza A virus, MDCK, 72 h, read-out: EC50 PR8
B/Lee/40 (Lee) [6] = assay: microbe, parasite or virus in culture; settings: Influenza B virus, MDCK, 72 h, read-out: EC50 Lee
[7] = Cell viability (MTT) of mock-infected MDCK cells; settings: dog, mock-infected MDCK cells
MDCK cells [8] = assay: Cell viability (MTT) of mock-infected MDCK cells; settings: 300 μg/mL
PR8 = assay: Time-of-addition plaque assay; type: cell-based, influenza A virus
PR8 virus (viral NP) = type: cell-based, influenza A virus
[9] = tested on: A/Puerto Rico/8/34 (H1N1, PR8); settings: Table 2
[10] = tested on: influenza viruses PR8, HK and Lee; settings: for inhibition of plaque formation: MOI 0.001, 3 days, crystal violet
Description: MDCK cells seeded in 48-well plates were infected with the influenza viruses at an MOI of 0.001 for 1 h at 33 °C (PR8) or 35 °C (HK and Lee). Test compounds and reference antiviral compounds were serially diluted in overlay medium [MEM containing 0.5% carboxymethylcellulose (CMC; Sigma) and 2 μg/mL TPCK-trypsin]. After washing with PBS, the cells were treated with the compounds in the overlay medium for 3 days at the temperature used for virus infection. Viral plaques were counted by staining with crystal violet [20].

MDCK cells [11] = settings: dog, 3 days, 300 μg/mL
[12] = CPE inhibition assay, PR8, HK and Lee

| SMILES | CC50 at 3 days (in vitro) | EC50 [3] | S.I. (CC50/EC50) HK [2] | S.I. (CC50/EC50) Lee (B/Lee/40 (Lee) [4]) | EC50 [5] [µg/mL] | EC50 (B/Lee/40 (Lee) [6]) | CC50 at 3 days [7] [µg/mL] | effect on plaques, pre-treatment (PR8) | effect on viral NP production/localization (PR8 virus (viral NP)) | EC50 ([1]; CPE inhibition assay) [µg/mL] | S.I. (CC50/EC50) PR8 [9] | inhibition of plaque formation [10] | further results |
| --- | --- | --- | --- | --- | --- | --- | --- | --- | --- | --- | --- | --- | --- |
| CCC(CC)O[C@@H]1C=C(C(=O)O)C[C@H](N)[C@H]1NC(C)=O [OSV-C, oseltamivir carboxylate, reference compound] | > 100 µM | 0.005 µM |  |  |  |  |  |  |  |  |  |  | anti-influenza activity in words [1, 12]: efficiently inhibited the replication of all viral strains tested; EC50 [2]: < 0.005 µM |
| O=c1c(O)c(-c2ccc(O)c(O)c2)oc2cc(O)cc(O)c12 [PC1, Quercetin] |  | 13.1 µg/mL | > 22.9 | > 20.0 | 12.6 (≈ 41.7 µM) | 15 µg/mL | > 300 |  |  |  |  |  | cytotoxicity to MDCK cells at the highest concentration (MDCK cells [8]): without cytotoxicity |
| COC(=O)c1ccc(O)c(O)c1 [PC2, Protocatechuic acid methyl ester] | 24.1 µg/mL | > 24.1 µg/mL |  | 2.2 | > 24.1 | 11.1 µg/mL |  |  |  |  |  |  |  |
| O=C(O)c1cc(O)c(O)c(O)c1 [PC3, Gallic acid] |  | 17.5 µg/mL |  |  |  |  |  |  |  |  |  |  | CC50 (in vitro): 111 µg/mL (≈ 653 µM) |
| O=c1oc2c(O)c(O)cc3c(=O)oc4c(O)c(O)cc1c4c23 [PC5, Ellagic acid] |  | 62.4 µg/mL | > 4.8 | > 3.8 | 81.1 (≈ 268 µM) | 79.2 µg/mL | > 300 | reduced viral plaque titers | inhibit the early steps | 14.7 to 81.1 (≈ 48.6 to 268 µM) | > 3.7 | inhibited plaque formation of influenza A and B viruses in a dose-dependent manner | effect on plaques, co-treatment (PR8): plaque reduction was more distinct; effect on plaques, post-treatment (PR8): reduced viral plaque titers |
| CC[C@H](CC[C@@H](C)[C@H]1CC[C@H]2[C@@H]3CC=C4C[C@@H](O)CC[C@]4(C)[C@H]3CC[C@]12C)C(C)C [PC6, β-Sitosterol] |  | 300 µg/mL | 1.0 |  | 282 (≈ 679 µM) | > 300 µg/mL |  |  |  |  | 1.1 |  | anti-influenza activity in words [1, 12]: marginal or no anti-influenza activity; CC50 (in vitro): 300 µg/mL (≈ 723 µM) |
| COC(=O)c1cc(O)c(O)c(O)c1 [PC7, Methyl gallate] | > 300 µg/mL | 17.1 µg/mL | > 17.5 | > 15.6 | 18.1 (≈ 98.3 µM) | 19.2 µg/mL |  | no inhibition | inhibit the early steps | 14.7 to 81.1 (≈ 79.8 to 440 µM) | > 16.6 | inhibited plaque formation of influenza A and B viruses in a dose-dependent manner | plaque reduction, co-treatment (PR8): about 35%; reduction of viral infectivity, post-treatment (PR8): 15%; reduction of cell viability (MDCK cells [11]): 49%; cytotoxicity seen as faint crystal violet background ([10]; MDCK cells, concentrations higher than 33 μg/mL): marginal cytotoxicity |
| O=C(O)/C=C/c1ccc(O)c(O)c1 [PC8, Caffeic acid] |  | 32.1 µg/mL | > 9.4 | > 20.4 | 37.8 (≈ 210 µM) | 14.7 µg/mL | > 300 | no significant antiviral activity | did not affect NP signal intensity or its localization | 14.7 to 81.1 (≈ 81.6 to 450 µM) | > 7.9 | inhibited plaque formation of influenza A and B viruses in a dose-dependent manner | effect on plaques, co-treatment (PR8): barely showed the efficacy at the maximum concentration; effect on plaques, post-treatment (PR8): no significant antiviral activity; cytotoxicity to MDCK cells at the highest concentration (MDCK cells [8]): without cytotoxicity |
| NC(=O)c1ncn([C@@H]2O[C@H](CO)[C@@H](O)[C@H]2O)n1 [RBV, ribavirin, reference compound] |  | 20.5 µM |  |  |  | 26.6 µM |  |  |  |  |  |  | anti-influenza activity in words [1]: efficiently inhibited the replication of all viral strains tested; EC50 [2]: 15.5 µM; EC50 (B/Lee/40 (Lee) [4]; read-out: EC50 Lee): 17 µM |
